{
  "source": "patent EP1370276B1",
  "about": "“INTERCELLULAR COMMUNICATION FACILITATING COMPOUNDS AND THEIR MEDICAL USE” (Zealand Pharma A/S, priority 2001, dated 2002)",
  "key": {"[1]": {"target": "murine heart tissue preparations", "test": "Displacement of [125I]AAP10 from murine heart tissue preparations", "assay_type": "binding, mice", "description": "Hearts are excised from mice (Balb/cJ, 20 g), rinsed twice in ice-cold (0°C) 0.32 M sucrose and homogenized on ice in 10 volumes of sucrose with an Ultra Turrax homogeniser (1000 rpm) for 2 minutes. The homogenate is centrifuged at 1000 gmea\" for 10 minutes at 4° C and the supernatant collected and filtrated through 4 layers of gauze. The filtrate is then centrifuged at 50,000 gmean for 45 min at 4° C and the pellet resuspended in 10 volorg. wet weight ice-cold distilled water and incubated for 60 min at 0° C and re-centrifuged at 50,000 gmean at 45 min at 4° C. The resulting pellet is resuspended in 2 vol org. wet weight of PBS (Phosphate Buffered Saline) and stored at - 80° C until use."}, "[2]": {"tested_on": "phosphoinositol turnover in rat primary cardiomyocytes", "test": "Phosphoinositol turnover in primary cardiomyocyte cultures", "assay_type": "cell-based", "conditions": "for EC50: enhancement of phospho-inositol turnover", "description": "Neonatal Wistar rats (1-2 days old) are used. Hank's calcium- and magnesium-free balanced salt solution, buffered with 10 mM HEPES is used for washing during cell separation procedures. The hearts are excised, the ventricles isolated and the tissue cut into small pieces. The myocardial cells are isolated by stepwise enzymatic degradation with collagenase 0.05%, as described by ^[35]. After repeated rounds of centrifugation and washing, the precipitated cells are resuspended in culture medium M199 with Earle's salt, 10% NCS, penicillin (75 U/mL), and streptomycin (75 U/mL) and pre-plated in a Petri dish for 90 minutes. The non-adherent cells are collected in the culture medium and plated in multidishes at 2.5*10^5 cells/well. The cultures are kept in a water-saturated CO2-incubator at 37°C. The cardiomyocyte cultures are used for analyses after 6-7 days.\nCardiomyocyte cultures are incubated for 48 hours in culture medium containing 4 µCi/mL myo-[2-^3H]inositol to label the inositol phospholipids. On the day of analysis the medium is replaced by a buffer solution containing lithium and incubated at 37°C, as described by Meier et al. ^[36]. After at least five minutes this buffer is replaced by the same volume of buffer containing test compound and incubated for exactly 20 minutes. The reaction is stopped by rapid replacement of the buffer by ice cold 4%v/v perchloric acid (PCA) and incubation for at least 20 minutes at 0°C. The PCA-extract is neutralised and the [^3H]inosltol phosphates are separated by anion-exchange chromatography using Amprep™ columns containing 100 mg SAX Quaternary amine. The [^3H]inositol mono-phosphates are eluted and radioactivity in the fraction measured by liquid scintillation counting.\nBefore adding test substances to the cultures, the cells are depleted of glucose and oxygen by incubating them in a N2-atmosphere in glucose-free lithium-buffer for 10 minutes at 37°C. Control cells are incubated likewise only at normal atmospheric conditions and in a buffer containing glucose."}, "[3]": {"tested_on": "isolated perfused rabbit hearts", "test": "Isolated perfused rabbit heart (Langendorff), APD90 dispersion during hypokalemic ischemia", "conditions": "10^-10 mol/l"}, "human osteoblast [4]": {"tested_on": "human osteoblast", "test": "Lucifer Yellow microinjection dye transfer, human osteoblasts", "assay_type": "cell-based", "conditions": "10 minutes, after 48 hours hypoxia 3-6% O2 (7 cells before)", "description": "Human osteblast cells (hOB): Cells were isolated from human bone marrow obtained by puncture of the posterior iliac spine of healthy volunteers (aged 20-36): 10-15 ml marrow material was collected in 15 ml PBS+Ca,Mg (Life Technologies, Cat.No. 14040) with 100 U/ml Heparin (Sigma, Cat.No. H-3149). The mononuclear fraction of the marrow was isolated on a Lymphoprep gradient (Nycomed Pharma, Cat.No. 1001967), by centrifugation at 2200 rpm for 30 min. After harvesting, the mononuclear fraction was washed once with culture medium and centrifuged at 1800 rpm for 10 min. Subsequently cells were counted and plated in culture medium at 8x10^6 cells/100 mm dish. hOB medium (all reagents obtained from Life Technologies): MEM w/o Phenol Red w/ Glutamax (Cat.No. 041-93013) supplemented with 10% heat inactivated fetal calf serum (Cat.No. 10106) and 0.1% Penicillin/Streptomycin (Cat.No. 15140). Medium was changed the following day and the cells were cultured at 37°C in 5%CO2 with medium change every 7 days. After 3-4 weeks of culture the cells had reached 70% confluence. The medium was then supplemented with 100 nM Dexamethasone (Sigma, Cat.No. D-4902) for 7 days. Cells were then plated for video imaging experiments: a 25 mm #1 glass coverslip was\nplaced in a 35 mm dish (or each well of a 6-well multidish), cells were plated at 2.5×10^5 cells/coverslip and cultured for 2-3 days before use. […]"}, "[5]": {"tested_on": "phosphoinositol turnover in rat primary cardiomyocytes", "conditions": "oxygen and glucose deprivation (untreated app. 50%); conference abstract; cited from earlier work"}, "human osteoblast [6]": {"tested_on": "human osteoblast", "conditions": "human osteoblast cultures and osteoblastic rat osteosarcoma cell lines; conference abstract; cited from earlier work"}},
  "note": "Read-outs that look alike come from different tables or passages of the source.",
  "data": [
    {"substance": "Ac-D-Tyr-D-Pro-D-4Hyp-Gly-D-Ala-Gly-NH2 [Compound 2]", "values": [
      {"measurement": "IC50", "setting": "[1]; displacement of 0.8 nM [125I]AAP10, filtrate, read-out: Filtrate IC50", "result": 3.6, "unit": "nM"},
      {"measurement": "IC50", "setting": "[1]; displacement of 0.8 nM [125I]AAP10, membranes, read-out: Membranes IC50", "result": 1.2, "unit": "nM"},
      {"measurement": "increase in phospho-inositol turnover compared with noradrenaline alone", "setting": "[2]; 100 nM + noradrenaline (300 nM), anoxia and glucose deprivation", "result": "about 70%"},
      {"measurement": "effect on noradrenaline (300 nM) induced increase in phospho-inositol turnover", "setting": "[2]; 100 nM, control conditions", "result": "had no further effect"},
      {"measurement": "EC50", "setting": "[2]; Glucose and oxygen deprivation", "result": 10, "unit": "nM"},
      {"measurement": "EC50", "setting": "[2]; Normal conditions", "result": 10, "unit": "nM"},
      {"measurement": "increase in APD90 dispersion during hypokalemic, acute myocardial ischemia", "setting": "[3]", "result": "prevented"},
      {"measurement": "dye transfer (number of cells containing Lucifer Yellow)", "setting": "human osteoblast [4]", "result": 9, "unit": "cells"},
      {"measurement": "noradrenalin-induced PI turnover, % of the normal level", "setting": "[5]", "result": "~90", "unit": "%"},
      {"measurement": "hypoxia-induced decrease of dye transfer after Lucifer Yellow injections", "setting": "human osteoblast [6]", "result": "completely reversed"}
    ]}
  ]
}
